BindingDB's records for PubMed 32539378 (Shandong University, 2020)

Tests used:
[1] = Inhibition of SARS-COV2 spike protein mediated infection of human ACE2 expressing cells at 50 uM […]
[2] = molecular target: Angiotensin-converting enzyme 2 (Homo sapiens, UniProt Q9BYF1); assay: Inhibition of SARS-COV2 S-RBD binding to human ACE2 expressed in HEK293T cells by NanoLuc luciferase assay
[3] = molecular target: Spike glycoprotein (Severe acute respiratory syndrome coronavirus 2, UniProt P0DTC2); assay: Inhibition of SARS-COV2 spike protein mediated infection of human ACE2 expressing cells at 50 uM […]

Sequence of Angiotensin-converting enzyme 2 (Q9BYF1 whole entry): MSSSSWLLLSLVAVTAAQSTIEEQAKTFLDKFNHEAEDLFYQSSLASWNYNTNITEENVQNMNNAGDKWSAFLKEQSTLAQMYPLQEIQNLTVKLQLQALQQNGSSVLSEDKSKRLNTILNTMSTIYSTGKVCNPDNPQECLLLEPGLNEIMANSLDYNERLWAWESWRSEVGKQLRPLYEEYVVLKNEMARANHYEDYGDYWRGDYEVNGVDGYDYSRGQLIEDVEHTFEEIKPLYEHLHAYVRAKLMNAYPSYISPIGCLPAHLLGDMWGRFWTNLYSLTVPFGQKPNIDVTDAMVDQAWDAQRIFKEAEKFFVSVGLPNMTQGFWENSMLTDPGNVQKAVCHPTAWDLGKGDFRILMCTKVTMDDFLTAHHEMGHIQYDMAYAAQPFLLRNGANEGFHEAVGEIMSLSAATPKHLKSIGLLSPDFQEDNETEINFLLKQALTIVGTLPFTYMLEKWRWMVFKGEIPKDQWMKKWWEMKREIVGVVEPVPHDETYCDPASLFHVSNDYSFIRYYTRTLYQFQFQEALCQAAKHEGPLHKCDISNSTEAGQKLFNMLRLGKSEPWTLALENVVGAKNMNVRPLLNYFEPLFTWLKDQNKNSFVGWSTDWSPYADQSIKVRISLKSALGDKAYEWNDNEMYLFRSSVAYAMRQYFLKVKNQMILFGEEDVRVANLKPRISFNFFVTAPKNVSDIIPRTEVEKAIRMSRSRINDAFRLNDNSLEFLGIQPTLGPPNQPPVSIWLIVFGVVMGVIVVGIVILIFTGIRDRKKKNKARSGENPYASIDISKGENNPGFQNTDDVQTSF

SMILES | IC50 [1] [µM] | also measured
O=c1cc(-c2ccc(O)c(O)c2)oc2cc(O)cc(O)c12 [2-(3,4-dihydroxyphenyl)-5,7-dihydroxy-4H-chromen-4-one] | 10.6 | –
O=C(OC[C@H]1O[C@@H](OC(=O)c2cc(O)c(O)c(O)c2)[C@H](OC(=O)c2cc(O)c(O)c(O)c2)[C@H](OC(=O)c2cc(O)c(O)c(O)c2)[C@@H]1O)c1cc(O)c(O)c(O)c1 [med.21724, Compound 2] | 4.5 | –
COc1cc(C)nc2c(OC)cc(Cc3cnc(N)nc3N)cc12 | – | IC50 [2]: 0.7 µM
COc1cc(Cc2cnc(N)nc2N)cc2c(N(C)C)cc(C)nc12 | – | IC50 [3]: 0.6 µM
